Measurements as given in PubChem BioAssay (NCI).
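Following 48 hours of exposure in 96-well plates, responses at five concentrations were used to interpolate endpoints linearly. GI50 marks 50% less growth. At the TGI there is no net growth.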

Columns and labels:
Experiment in all cases: inhibition of tumour cell growth, NCI panel, 48 h
NCI-H226 lung = system: NCI-H226 lung
SK-MEL-28 melanoma = system: SK-MEL-28 melanoma
A549 NSCLC = system: A549 NSCLC
RXF 393 renal = system: RXF 393 renal
MDA-MB-435 = system: MDA-MB-435
OVCAR-5 ovarian = system: OVCAR-5 ovarian
COLO 205 colon = system: COLO 205 colon
T-47D breast = system: T-47D breast
RPMI-8226 leukemia = system: RPMI-8226 leukemia
SF-295 CNS = system: SF-295 CNS

Structure (SMILES) | TGI (NCI-H226 lung) [µM] | TGI (SK-MEL-28 melanoma) [µM] | TGI (A549 NSCLC) [µM] | TGI (RXF 393 renal) [µM] | TGI (MDA-MB-435) [µM] | TGI (OVCAR-5 ovarian) [µM] | TGI (COLO 205 colon) [µM] | TGI (T-47D breast) [µM] | TGI (RPMI-8226 leukemia) [µM] | GI50 (NCI-H226 lung) [nM] | GI50 (SK-MEL-28 melanoma) [nM] | GI50 (A549 NSCLC) [nM] | GI50 (RXF 393 renal) [nM] | GI50 (MDA-MB-435) [nM] | GI50 (OVCAR-5 ovarian) [nM] | GI50 (COLO 205 colon) [nM] | GI50 (T-47D breast) [nM] | GI50 (SF-295 CNS) [nM] | TGI (SF-295 CNS) [µM] | GI50 (RPMI-8226 leukemia) [nM]
COS(C)(=O)=O | > 2 | > 2 | > 2 | > 2 | > 2 | > 2 | > 2 | > 2 | > 2 |  |  |  |  |  |  |  |  |  |  | 
COc1ccc(-c2cc(-c3ccc(Cl)cc3)nc(NCCCCNc3ccnc4cc(Cl)ccc34)n2)cc1 | > 100 | 3.32 | 3.9 | 5.2 | 3.27 | 29.5 | 4.53 | 31.4 | 5.66 | 31800 | 1760 | 1870 | 1650 | 1790 | 15400 | 1860 | 12300 | 8020 | 24.2 | 2140
CS(=O)(=O)c1cccc(Nc2ncc3cc(-c4ccccc4Cl)ccc3n2)c1 | 21.5 | > 33.3 | > 33.3 | 6.24 | 1.9 | > 33.3 | 3.13 | > 33.3 | 21.4 | 2550 | 1770 | 1780 | 1050 | 657 | 1880 | 1190 | 1100 | 1600 | > 33.3 | 1470
CC(=O)Nc1ccc(S(=O)(=O)N=S(C)C)cc1 | > 100 | > 100 | > 100 | > 100 | > 100 | > 100 | > 100 | > 100 | > 100 |  |  |  |  |  |  |  |  |  | > 100 | 
Cc1nc2sc3c(N)ncnc3c2c(C)c1C | > 25 | > 25 | > 25 | > 25 | > 25 | > 25 | > 25 | > 25 | > 25 | > 25000 | > 25000 | > 25000 | > 25000 | > 25000 | > 25000 | > 25000 | > 25000 | > 25000 | > 25 | > 25000
COc1cc(-c2nc3ccccc3o2)cc(CN2CCCCC2)c1O | 4.32 | 4.12 | 4.12 | 52 | 3.53 | 20.7 | 4.6 | > 100 | > 100 | 1850 | 1970 | 1630 | 17100 | 1700 | 5310 | 2380 | 17000 | 1850 | 6.6 | 2850
CCN(CC)c1ccc(-c2cc(-c3cc(OC)c(OC)c(OC)c3)nc(N3CCC(O)CC3)c2C#N)cc1 | 5.77 | 3.76 |  | 2.93 | 1.12 | > 21.8 | 2.11 | 3.8 | 4.78 | 756 | 879 | 326 | 193 | 272 | 469 | 488 | 495 | 169 | 0.435 | 232
CC(=O)Nc1cc2cc(NS(=O)(=O)c3ccc(Cl)c(Cl)c3)ccc2oc1=O | > 100 | > 100 | > 100 | 25.6 | > 100 | > 100 | 93.7 | 43.5 | > 100 |  |  |  |  |  |  |  |  |  | 44.5 | 
Clc1cccc(CNc2c3ccccc3nc3ccccc23)c1 | 6.24 | 3.25 | 6.01 | 2.85 | 3.13 | 6.54 | 3.88 | 5.06 | 4.18 | 2220 | 1700 | 2070 | 1350 | 1670 | 2060 | 1540 | 2000 | 1510 | 3.08 | 1740
Cc1ccc(Cl)c(NS(=O)(=O)c2ccc(-c3cnc(C4CC4)o3)cc2)c1 | 28.1 | > 58.5 | > 100 | > 100 | 2.23 | > 100 | 1.36 | 67.9 | 24.8 | 1030 | 2770 | 146 | 199 | 38.2 | 439 | 154 | 48.1 | 37.7 | 0.182 | 318
Cn1c(=O)c(Oc2ccc(F)cc2F)cc2cnc(N[C@@H]3CCOC3)nc21 | > 25 | > 25 | > 25 | > 25 | > 25 | > 25 | > 25 | > 25 | > 25 | > 25000 | > 25000 | > 25000 | > 25000 | > 25000 | > 25000 | > 25000 | > 25000 | > 25000 | > 25 | > 25000
N#Cc1nc(C#N)c(Sc2ccccc2)c(Sc2ccccc2)c1Sc1ccccc1 |  | 2.89 |  | 3.22 | 7.17 | 4.68 | 2.03 | 2.48 | > 28.3 | 2420 | 1480 |  | 980 | 684 | 2340 | 719 | 584 | 2750 | > 29.1 | 638
